From US6747036B2, “Methods of treating leukemia” (BioChem Pharma Inc., priority 1999, dated 2004)

What was measured:
[1] = tested on: Human Leukemia (HL60) xenograft; assay: β-L-OddC/doxorubicin combination study in a human leukemia (HL60) xenograft survival model; type: in vivo, female SCID mice; details: start day 10
Description: β-L-OddC/doxorubicin Combination Study in a Human Leukemia (HL60) Xenograft Model
A study was conducted to evaluate the synergistic or additive therapeutic effect of β-L-OddC in combination with the currently known anticancer agent Doxorubicin. The model that was utilized is a survival model consisting of female SCID mice which are inoculated in the abdomen region (i.p.) with 15×10^6 HL60 cells in log phase growth. This corresponds to day 0 of the experiment. Administration of anti-cancer drug is started 10 days after tumor cell inoculation.
10 animals were used per group for β-L-oddC alone, Doxorubicin alone and the combination of β-L-oddC with Doxorubicin. Each groups received the drugs alone or in combination intraperitoneal once daily for 5 consecutive days.
Augmentation of survival time was calculated by substracting from the median survival time of group two to six, which corresponds to the day when the fifth mouse dies, the median survival time of control group 1 and multiplying by 100.

advanced leukemia = assay: Evaluation of β-L-oddC in patients with advanced leukemia previously treated with Ara-C; type: in vivo, human; details: twelve patients treated; 30 min daily infusion for 5 consecutive days; responders 2 each at 1.08 and 1.62 mg/m2; three AML, one CML
Description: Evaluation of β-L-oddC in Patients with Advanced Leukemia.
The study involved treatment of patients with advanced leukemia that had been previously treated with Citarabine (Ara-C). […] Twelve patients were treated with an initial course at daily doses of 0.72 mg/m2 (4 patients), 1.08 mg/m^2 (5 patients), 1.62 mg/m^2 (3 patients) given as a daily infusion over 30 minutes for 5 consecutive days. Five patients were treated with second courses at daily doses of 1.08 mg/m^2 (3 patients), 1.62 mg/m^2 (2 patients) given over 5 consecutive days as above. 1 patient was treated with a 3rd 5 day course at the 2.43 mg/m^2 daily dose level. 4 patients (2 each at the 1.08 mg/m^2 and 1,62 mg/m^2 levels) have shown a transient decrease in peripheral blood and bone marrow blasts. Of these four patients, three had acute mylogenous leukemia and one had chronic mylogenous leukemia.

| Compound | Augmentation Survival Time ([1]; Doxorubicin 0.2 mg/kg i.p. once daily for 5 days) [%] | Augmentation Survival Time ([1]; Doxorubicin 2 mg/kg i.p. once daily for 5 days) [%] | patients showing a transient decrease in peripheral blood and bone marrow blasts (advanced leukemia) [patients] | Augmentation Survival Time ([1]; β-L-OddC 1 mg/kg i.p. once daily for 5 days) [%] |
| --- | --- | --- | --- | --- |
| COc1cccc2c1C(=O)c1c(O)c3c(c(O)c1C2=O)C[C@@](O)(C(=O)CO)C[C@@H]3O[C@H]1C[C@H](N)[C@H](O)[C@H](C)O1 [Doxorubicin] | 25 | 50 | – | – |
| Nc1ccn([C@@H]2CO[C@H](CO)O2)c(=O)n1 [β-L-OddC, (−)-β-L-Dioxolane-Cytidine] | – | – | 4 | 55 |
